Tested on: high-fat diet-induced obesity animal models
Settings: oral formate vs high-fat diet control group
Text: In order to investigate whether formic acid actually has an anti-obesity effect, the present inventors orally administered formate into high-fat diet-induced obesity animal models. […] The patent application procedure of the above-described contents is under way, separately from the present disclosure.

## O=CO [formate]
  blood cholesterol content: significantly reduced
  blood triglyceride content: significantly reduced
  body weight increase: inhibited
  fat cell size: decreased
  kidney fat weight value: lowered

Reference: US11564955B2, “Composition including, as active ingredient, strain having ability to produce formic acid for preventing or treating obesity or metabolic syndromes caused by obesity” (KOREA FOOD RESEARCH INSTITUTE, priority 2016, dated 2023)
